# Laboratory results reported in patent publication US11279966B2, “Method for identifying compound for inhibiting an activity of a histone lysine demethylase” (NATIONAL TSING HUA UNIVERSITY, priority 2014, dated 2022).
# Experiments:
# HeLa cells = conditions: read-out: cytotoxic IC50 in HeLa cells; cited from earlier work
# KDM4A = target: T1, KDM4A (Homo sapiens, UniProt O75164); assay: Formaldehyde dehydrogenase-coupled demethylase assay, KDM4A; assay type: biochemical; parameters: Demethylase Residual Activity (%): concentration or dose not given beside the values; conditions: for Demethylase Residual Activity (%): FDH-coupled assay
# T1 construct: Human KDM4B 1-348 and KDM4A 1-347 were PCR amplified; His6 (N); made in house; host or cells: Escherichia coli BL21 (DE3)
# T1 sequence (O75164 1-347): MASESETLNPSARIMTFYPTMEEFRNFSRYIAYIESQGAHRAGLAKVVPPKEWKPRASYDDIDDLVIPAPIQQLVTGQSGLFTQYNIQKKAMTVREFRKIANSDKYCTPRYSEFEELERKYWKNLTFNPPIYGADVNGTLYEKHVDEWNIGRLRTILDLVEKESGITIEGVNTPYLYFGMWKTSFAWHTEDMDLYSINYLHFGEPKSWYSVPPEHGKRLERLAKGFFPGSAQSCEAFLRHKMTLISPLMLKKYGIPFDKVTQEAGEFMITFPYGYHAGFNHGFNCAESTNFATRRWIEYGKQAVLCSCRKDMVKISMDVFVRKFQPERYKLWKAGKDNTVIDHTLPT
# KDM4B = target: T2, KDM4B (Homo sapiens, UniProt O94953); assay: Formaldehyde dehydrogenase-coupled demethylase assay, KDM4B; assay type: biochemical; parameters: concentration or dose not given beside the values; conditions: FDH-coupled assay
# T2 construct: Human KDM4B 1-348 and KDM4A 1-347 were PCR amplified; His6 (N); made in house; host or cells: Escherichia coli BL21 (DE3)
# T2 sequence (O94953 1-348): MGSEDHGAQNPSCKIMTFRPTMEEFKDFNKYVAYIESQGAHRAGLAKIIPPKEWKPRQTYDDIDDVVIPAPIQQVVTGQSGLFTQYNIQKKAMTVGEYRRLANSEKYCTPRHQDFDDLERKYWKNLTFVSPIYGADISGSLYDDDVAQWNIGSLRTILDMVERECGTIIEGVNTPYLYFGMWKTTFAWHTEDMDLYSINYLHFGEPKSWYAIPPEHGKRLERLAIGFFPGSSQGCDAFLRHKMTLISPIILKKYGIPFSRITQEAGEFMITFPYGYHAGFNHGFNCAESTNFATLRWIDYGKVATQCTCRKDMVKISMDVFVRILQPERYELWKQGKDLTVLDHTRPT
# [1] = target: T3, FDH (formaldehyde dehydrogenase) (Pseudomonas putida, UniProt P46154); assay: FDH residual activity (control for the coupling enzyme); assay type: biochemical; parameters: concentration or dose not given beside the values
# T3 construct: purchased Sigma
# T3 sequence (P46154 1-399): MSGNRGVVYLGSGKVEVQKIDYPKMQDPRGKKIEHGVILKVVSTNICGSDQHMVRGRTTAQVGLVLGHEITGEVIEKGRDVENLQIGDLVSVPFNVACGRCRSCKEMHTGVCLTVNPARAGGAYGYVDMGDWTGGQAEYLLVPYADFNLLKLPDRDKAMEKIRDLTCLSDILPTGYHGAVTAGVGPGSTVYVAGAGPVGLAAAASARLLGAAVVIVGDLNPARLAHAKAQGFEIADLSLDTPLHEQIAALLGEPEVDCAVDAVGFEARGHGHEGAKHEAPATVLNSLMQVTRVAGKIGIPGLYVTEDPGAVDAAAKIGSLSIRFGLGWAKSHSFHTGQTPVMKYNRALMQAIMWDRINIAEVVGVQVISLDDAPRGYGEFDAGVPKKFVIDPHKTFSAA
# KDM4A/KDM4B [2] = assay: KDM4A/KDM4B inhibitory assay, results stated in words; assay type: biochemical, human
# Procedure: Formaldehyde dehydrogenase-coupled demethylase assay was used to determine the demethylase activity and select the potent inhibitors. All inhibitors were dissolved in dimethyl sulfoxide (DMSO) at various concentrations, and added to the mixture that the final DMSO concentration is 5%. The reagents for demethylase reactions were dissolved in HEPES buffer (50 mM, pH 7.5), with the exception of Fe(II) solutions, which were made using (NH4)2Fe(SO4)2 dissolved in 20 mM HCl to make 400 mM stock solution. All the reagents were stored at −30° C. FDH, NAD+, H-TKQTARK(Me3)[…]-OH (TR-15, H33-17K9me3, Kelowna), DMSO, and KDM4B were added first to 96-well black immune plate (SPL Life Science) and incubated together on ice for 15 min. Then the plate was put into FLUOStar OPTIMA ELISA reader (BMG LABTECH) with 37° C., and the reaction was started by adding ascorbic acid (ascorbate), Fe(II), and α-ketoglutarate (AKG) to final concentration of 50 mM HEPES, pH 7.5, 2 μM of KDM4B, 5% DMSO, 0.01 U FDH (Sigma), 1 mM NAD+, 1 mM 2-OG, 2 mM ascorbate, and 50 μM Fe(II), various concentration of H3K9me3 peptide, and the final volume was 50 μl. Each reaction was incubated at 37° C. for 30 min and the production of NADH would be detected by using the fluorescence Ex 360/Em 470. […]
# LNCaP cells [3] = assay: Flow cytometric analysis of DNA content (sub-G1, apoptosis) in LNCaP cells; assay type: cell-based, human; conditions: 50 μM, 3 days; mock 11.9%
# Procedure: (§1) LNCaP cells are infected with lentivirus with control shRNA (control) and shKDM4A or shKDM4B as indicated (left panel). The qRT-PCR analysis is performed to evaluate the expression of KDM4s (right panel). […] LNCaP cells are treated with 1,5-bis[(E)-2-(3,4-dichlorophenyl) ethenyl]-2,4-dinitrobenzene for three days, and the viability is measured by viable cell count. SD is derived from biological triplicates. The level of H3K9me3 of 1,5-bis[(E)-2-(3,4-dichlorophenyl)ethenyl]-2,4-dinitrobenzene-treated cells (24 hr) is detected and quantified by AlphaView SA (Cell Biosciences Inc.). The level of H3K9me3 is shown by bar graph.
# (§2) Total cell lysates were obtained by lysing the cell with buffer (50 mM Tris-HCl pH7.5, 150 mM NaCl, 0.5% Triton X-100, 10% glycerol, 1 mM EDTA, protease inhibitors) for 15 min on ice, followed by 10 min of sonication cycle (30 sec on, 30 sec off) on ice. The level of total histone H3 and trimethylated histone H3 Lys9 was analyzed by western blotting using anti-histone H3 and anti-H3K9me3 antibodies (Abcam, MA). Cells treated with mock and the inhibitor were harvested and fixed by 70% ethanol for >4 hours at −20° C., followed by propidium iodide (Sigma Aldrich) staining. The DNA content was analyzed by Becton Dickinson FACScan flow cytometry, and the sub-G1 population was quantified by WinMDI 2.9.
# in vitro = assay type: cell-based; conditions: human
# Procedure: as §1
# Primary PrEC cells were purchased from Clonetics (Walkersville, Md.) and cultured in serum-free prostate epithelial cell growth medium following the vendor's directions. Cell lines RWPE1, LNCaP (LNCaP-FGC), CWR22Rv1 (22Rv1), VCaP, DU145, PC3 (all purchased from ATCC), and PNT2 (Sigma Aldrich, MO), were cultured under condition as recommended. CWR-R1 cell (40) and LNCaP derived C4-2, C4-2B cells were cultured in RPMI1640 medium containing 10% FBS.
# H3K9me3 in LNCaP cells = assay: Cellular level of H3K9me3 in LNCaP cells, immunoblotting; assay type: cell-based, human
# Procedure: as §1, §2
# LNCaP cells [4] = assay: Microarray gene expression analysis of treated LNCaP cells; assay type: cell-based, human; conditions: 3 days
# Procedure: LNCaP cells treated with mock and the 1,5-bis[(E)-2-(3,4-dichlorophenyl) ethenyl]-2,4-dinitrobenzene inhibitor for 3 days were harvested and the total RNA was extracted using Trizol reagent (Life Technologies, NY). Microarray analysis was performed by the University of California Davis Cancer Center Gene Expression Resource, using Affymetrix Human Genome U133A (HG-U133A) GeneChip arrays (Affymetrix, CA), which permit expression analysis of the entire Genbank RefSeq database. Array scanning and generation of raw signal data files were done with GeneChip Operating Software (Affymetrix). Subsequent data analysis was done by GeneSpring (Agilent Technologies, CA) and DAVID Bioinformatic Resources 6.7 (NIH).
# KDM4A/KDM4B [5] = conditions: calf thymus histones as substrate
Compound,Demethylase Residual Activity (%) (KDM4A),Demethylase Residual Activity (%) (KDM4B),FDH Residual Activity (%) [1],also measured
O=C(O)c1ccc(O)c2ncccc12 [5-carboxy-8HQ],–,–,–,IC50 (HeLa cells): 86.5 µM
CCCCCC/C(C)=N/Nc1ccc([N+](=O)[O-])cc1[N+](=O)[O-] [NSC1018],85%,62%,>80%,–
C/C(=N/Nc1ccc([N+](=O)[O-])cc1[N+](=O)[O-])c1ccccc1 [NSC6129],100%,52%,>80%,–
O=C1C=Cc2ccccc2/C1=N/Nc1ccc([N+](=O)[O-])cc1[N+](=O)[O-] [NSC15975],73%,90%,>80%,–
O=C(O)c1ccc(C(=O)c2ccccc2C(=O)O)cc1C(=O)O [NSC28620],–,–,>80%,inhibitory effect on KDM4A/KDM4B (in words) (KDM4A/KDM4B [2]): completely lost the inhibitory effects
COC1CC(OC(=O)c2ccc([N+](=O)[O-])cc2)C(OC(=O)c2ccc([N+](=O)[O-])cc2)C(C)O1 (stereo not shown) [NSC107408],99%,64%,>80%,inhibitory effect on KDM4A/KDM4B (in words) (KDM4A/KDM4B [2]): no inhibition
O=C1C=CC=C/C1=C\Nc1cc(C(=O)O)cc(C(=O)O)c1 [NSC124029],93%,62%,97%,–
O=[N+]([O-])c1cc([N+](=O)[O-])c(/C=C/c2ccc(Cl)c(Cl)c2)cc1/C=C/c1ccc(Cl)c(Cl)c1 [NSC636819],–,–,>80%,"apoptotic LNCaP cells (LNCaP cells [3]): 39.5%; IC50 at 3 days (in vitro): 21.2 µM; inhibitory mode (KDM4A; against H33-17K9me3): competitive; demethylating activity toward H3K9me3 in cells (H3K9me3 in LNCaP cells; 5 μM): essentially completely blocked; cellular level of H3K9me3 (H3K9me3 in LNCaP cells; 24 hr, dose-dependent): notable increase; expression of oncogenes IGF1R, FGFR3, CCNE2, AURKA and AURKB (LNCaP cells [4]): down-regulation; expression of tumour suppressors RB1, CDH1 (LNCaP cells [4]): up-regulation; portion of the altered genes found to be androgen responsive genes (LNCaP cells [4]; ≥two-fold alterations, 178/656): 27%"
COC(=O)C(C(=O)C(=O)Nc1ccc([N+](=O)[O-])cc1[N+](=O)[O-])c1nc2ccc(Cl)cc2[nH]c1=O (stereo not shown) [NSC640999],77%,49%,>80%,–
C/C(CC(O)(C(F)(F)F)C(F)(F)F)=N/Nc1ccc([N+](=O)[O-])cc1[N+](=O)[O-] [NSC659196],92%,56%,>80%,–
"O=C(O)c1ccnc(C(=O)O)c1 [PD2, pyridine 2,4-dicarboxylic acids, reference compound]",21%,24%,–,"demethylation activity on histones (H3K9me3, H3K36me3 western blot) (KDM4A/KDM4B [5]): blocked the demethylation activity"
